Laboratory results from US9340510B2, “Tetrahydroisoquinoline derivatives, pharmaceutical compositions and uses thereof” (Boehringer Ingelheim International GmbH, priority 2014, dated 2016).
pIC50: −log10 of the molar value.

target: human ACC2 (Homo sapiens (Human), UniProt O00763); experiment: ACC2 assay: spectrophotometric 384 well assay (coupled lactate dehydrogenase/pyruvate kinase); assay type: biochemical; conditions: hACC2 construct lacking the 128 N-terminal amino acids, 25° C., 340 nm
Summary of the method: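 N-terminally truncated human ACC2 from insect cells; ADP formation coupled via pyruvate kinase/lactate dehydrogenase, NADH loss read at 340 nm over 15 min at 25 °C, pH 7.5. Started with NADH, acetyl-CoA and 500 µM ATP; 1% DMSO. IC50 by nonlinear fit of background-subtracted slopes.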

Chain of human ACC2 (O00763 129-2458): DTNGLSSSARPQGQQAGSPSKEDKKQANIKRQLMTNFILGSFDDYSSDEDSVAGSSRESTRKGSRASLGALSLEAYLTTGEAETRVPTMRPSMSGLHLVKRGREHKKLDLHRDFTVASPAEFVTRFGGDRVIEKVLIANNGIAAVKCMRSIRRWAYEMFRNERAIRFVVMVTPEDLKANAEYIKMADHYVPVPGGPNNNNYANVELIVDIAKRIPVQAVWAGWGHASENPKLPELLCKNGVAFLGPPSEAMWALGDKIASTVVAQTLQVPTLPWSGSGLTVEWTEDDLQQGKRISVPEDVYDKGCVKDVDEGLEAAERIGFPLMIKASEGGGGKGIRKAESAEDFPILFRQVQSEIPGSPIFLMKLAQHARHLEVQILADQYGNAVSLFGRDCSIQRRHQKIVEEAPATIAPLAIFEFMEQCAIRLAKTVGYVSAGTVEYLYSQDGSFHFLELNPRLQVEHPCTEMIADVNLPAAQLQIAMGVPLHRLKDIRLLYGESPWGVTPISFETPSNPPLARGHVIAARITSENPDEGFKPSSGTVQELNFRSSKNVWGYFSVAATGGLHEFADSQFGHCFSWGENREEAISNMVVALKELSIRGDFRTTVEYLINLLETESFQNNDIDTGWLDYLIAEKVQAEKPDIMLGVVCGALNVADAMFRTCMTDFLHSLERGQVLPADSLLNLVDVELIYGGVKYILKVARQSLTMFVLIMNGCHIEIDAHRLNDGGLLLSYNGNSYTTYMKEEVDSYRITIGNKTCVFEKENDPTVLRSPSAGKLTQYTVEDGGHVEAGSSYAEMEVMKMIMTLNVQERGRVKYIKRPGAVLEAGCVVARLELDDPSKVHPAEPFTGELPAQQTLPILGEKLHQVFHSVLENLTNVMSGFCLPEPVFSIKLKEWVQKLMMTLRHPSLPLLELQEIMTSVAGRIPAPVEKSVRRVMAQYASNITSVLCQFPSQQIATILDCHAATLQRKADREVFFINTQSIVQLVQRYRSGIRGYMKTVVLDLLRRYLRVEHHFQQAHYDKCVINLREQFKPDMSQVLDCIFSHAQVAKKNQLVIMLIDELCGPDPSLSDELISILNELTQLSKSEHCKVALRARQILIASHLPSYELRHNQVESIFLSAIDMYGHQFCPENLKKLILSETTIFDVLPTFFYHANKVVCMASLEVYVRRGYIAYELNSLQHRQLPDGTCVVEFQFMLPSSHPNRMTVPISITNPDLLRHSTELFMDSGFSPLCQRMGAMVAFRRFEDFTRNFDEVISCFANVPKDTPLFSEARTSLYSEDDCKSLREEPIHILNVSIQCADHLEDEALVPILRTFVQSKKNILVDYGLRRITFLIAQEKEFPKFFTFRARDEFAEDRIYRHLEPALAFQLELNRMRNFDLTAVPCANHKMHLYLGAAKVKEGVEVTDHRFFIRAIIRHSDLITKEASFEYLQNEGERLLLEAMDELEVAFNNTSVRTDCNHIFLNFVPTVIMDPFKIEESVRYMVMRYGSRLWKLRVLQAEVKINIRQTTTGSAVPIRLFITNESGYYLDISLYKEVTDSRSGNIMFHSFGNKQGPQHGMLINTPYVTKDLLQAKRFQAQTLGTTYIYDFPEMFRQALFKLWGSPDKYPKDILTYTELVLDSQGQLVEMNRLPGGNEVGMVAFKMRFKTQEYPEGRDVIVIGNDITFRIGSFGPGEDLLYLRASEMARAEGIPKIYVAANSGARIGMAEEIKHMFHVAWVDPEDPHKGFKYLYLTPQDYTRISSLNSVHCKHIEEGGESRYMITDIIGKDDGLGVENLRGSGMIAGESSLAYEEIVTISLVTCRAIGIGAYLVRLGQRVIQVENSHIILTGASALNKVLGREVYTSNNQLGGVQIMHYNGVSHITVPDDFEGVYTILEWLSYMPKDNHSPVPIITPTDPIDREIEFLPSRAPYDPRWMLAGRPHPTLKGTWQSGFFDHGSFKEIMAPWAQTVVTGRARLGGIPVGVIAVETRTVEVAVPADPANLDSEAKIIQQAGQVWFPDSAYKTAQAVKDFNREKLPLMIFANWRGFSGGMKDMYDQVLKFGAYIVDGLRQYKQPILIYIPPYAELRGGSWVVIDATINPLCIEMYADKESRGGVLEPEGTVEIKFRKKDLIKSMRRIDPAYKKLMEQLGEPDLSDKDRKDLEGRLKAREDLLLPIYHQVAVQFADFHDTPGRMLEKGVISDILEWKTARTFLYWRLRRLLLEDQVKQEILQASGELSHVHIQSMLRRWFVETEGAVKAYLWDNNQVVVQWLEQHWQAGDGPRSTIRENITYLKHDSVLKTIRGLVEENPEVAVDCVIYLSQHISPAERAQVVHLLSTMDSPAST

SMILES | pIC50
C[C@H](NC(=O)C1(O)CC1)c1ccc(CN2CCc3cc(OC[C@@H]4CC4(F)F)ccc3C2)cc1 [Example 2.028] | 6.66
C[C@H](NC(=O)[C@H]1CCC(=O)N1)c1ccc(CN2Cc3ccc(OCC4CC4)cc3C(F)C2)cc1 (some centres unmarked) [Example 3.053] | 6.67
C[C@H](NC(=O)N(C)C)c1ccc(CN2Cc3ccc(OCC4CC4)cc3C(O)C2)cc1 (some centres unmarked) [Example 5.005] | 6.81
C[C@H](NC(=O)CC(=O)N(C)C)c1ccc(CN2CCc3cc(OCC4CC4)ccc3C2)cc1 [Example 2.03] | 6.34
CC(=O)NC(C)c1ccc(CN2CCc3c(cccc3C(F)F)C2)cc1 (centres unmarked) [Example 1.027] | 6.16
COc1c(OCC2CC2(F)F)ccc2c1CCN(Cc1ccc([C@H](C)NC(C)=O)cc1)C2 (some centres unmarked) [Example 1.064] | 6.98
C[C@H](NC(=O)[C@H]1C[C@H](F)C1)c1ccc(CN2CCc3cc(OCC4CC4(F)F)ccc3C2)cc1 (some centres unmarked) [Example 3.022] | 7.55
CC(=O)NC(C)c1ccc(CN2CCc3cc(C(F)F)ccc3C2)cc1 (centres unmarked) [Example 1.028] | 6.10
CC(=O)Nc1nc(C)c(C(=O)N[C@@H](C)c2ccc(CN3CCc4c(cccc4C(F)(F)F)C3)cc2)s1 [Example 2.005] | 6.98
C[C@H](NC(=O)[C@H]1C[C@H](F)C1)c1ccc(CN2Cc3ccc(OCC4CC4)cc3C(O)C2)cc1 (some centres unmarked) [Example 3.049] | 6.35
COc1c(OCc2ccccc2)ccc2c1CCN(Cc1ccc(C(C)NC(C)=O)cc1)C2 (centres unmarked) [Example 1.036] | 7.00
COC(=O)c1ccc2c(c1)CCN(Cc1ccc(C(C)NC(C)=O)cc1)C2 (centres unmarked) [Example 1.002] | 6.28
CC(=O)NC(C)c1ccc(CN2CCc3cc(OCCCF)ccc3C2)cc1 (centres unmarked) [Example 1.013] | 6.84
C[C@H](NC(=O)C(C)(F)F)c1ccc(CN2CCc3cc(OCC4CC4(F)F)ccc3C2)cc1 (some centres unmarked) [Example 3.002] | 7.54
CC(=O)Nc1nc(C)c(C(=O)N[C@@H](C)c2ccc(CN3Cc4ccc(OCC5CC5(F)F)cc4C(F)C3)cc2)s1 (some centres unmarked) [Example 3.032] | 7.24
C[C@H](NC(=O)C1(C#N)CC1)c1ccc(CN2Cc3ccc(OCC4CC4)cc3C(F)C2)cc1 (some centres unmarked) [Example 3.044] | 7.21
C[C@H](NC(=O)C1(O)CC1)c1ccc(CN2Cc3ccc(OCC4CC4)cc3C(F)C2)cc1 (some centres unmarked) [Example 3.062] | 6.99
CCC(=O)Nc1nc(C)c(C(=O)N[C@@H](C)c2ccc(CN3CCc4cc(OCC5CC5)ccc4C3)cc2)s1 [Example 2.033] | 7.41
CC(=O)NC(C)c1ccc(CN2CCc3c(ccc(OCC(F)F)c3Cl)C2)cc1 (centres unmarked) [Example 1.038] | 6.66
C[C@H](NC(=O)CO)c1ccc(CN2CC(=O)c3cc(OCC4CC4(F)F)ccc3C2)cc1 (some centres unmarked) [Example 2.039] | 6.25
C[C@H](NC(=O)C1CCC[C@@H]1N)c1ccc(CN2Cc3ccc(OCC4CC4)cc3C(F)C2)cc1 (some centres unmarked) [Example 3.056] | 6.05
C[C@H](NC(=O)c1ccno1)c1ccc(CN2CCc3cc(OCC4CC4(F)F)ccc3C2)cc1 (some centres unmarked) [Example 3.014] | 6.99

SMILES | pIC50
CCCOc1ccc2c(c1)CCN(Cc1ccc([C@H](C)NC(=O)C3CC3)cc1)C2 [Example 1.041] | 7.24
COc1c(OCC2CC2(F)F)ccc2c1CCN(Cc1ccc([C@H](C)NC(C)=O)cc1)C2C (some centres unmarked) [Example 1.084] | 6.58
COc1c(OCC(C)C)ccc2c1CCN(Cc1ccc([C@H](C)NC(C)=O)cc1)C2 [Example 1.068] | 7.15
CC(O)C(=O)N[C@@H](C)c1ccc(CN2CCc3cc(OCC4CC4)ccc3C2)cc1 (some centres unmarked) [Example 2.021] | 6.77
COc1cccc2c1CCN(Cc1ccc([C@H](C)NC(=O)c3cncs3)cc1)C2 [Example 2.001, Thiazole-5-carboxylic acid {(S)-1-[4-(5-methoxy-3,4-dihydro-1H-isoquinolin-2-ylmethyl)-phenyl]-ethyl}-amide] | 6.87
CC(=O)Nc1nc(C)c(C(=O)N[C@@H](C)c2ccc(CN3CCc4cc(OCC5CC5(F)F)ccc4C3)cc2)s1 (some centres unmarked) [Example 2.020] | 7.55
C[C@H](NC(=O)C1CC1)c1ccc(CN2CCc3cc(OC[C@@H]4CC4(F)F)ccc3C2)cc1 [Example 1.051] | 7.51
COc1c(OCCC(F)(F)F)ccc2c1CCN(Cc1ccc([C@H](C)NC(=O)C3CC3)cc1)C2 [Example 1.054] | 6.57
C[C@H](NC(=O)C1COCCN1)c1ccc(CN2Cc3ccc(OCC4CC4)cc3C(F)C2)cc1 (some centres unmarked) [Example 3.057] | 6.45
C[C@H](NC(=O)c1cncs1)c1ccc(CN2Cc3ccc(OCC4CC4)cc3C(O)C2)cc1 (some centres unmarked) [Example 3.047] | 6.51
CCCOc1ccc2c(c1OC)CCN(Cc1ccc([C@H](C)NC(C)=O)cc1)C2 [Example 1.074] | 7.10
CC(=O)NC(C)c1ccc(CN2CCc3cc(C(F)(F)F)ccc3C2)cc1 (centres unmarked) [Example 1.001, N-{1-[4-(6-Trifluoromethyl-3,4-dihydro-1H-isoquinolin-2-ylmethyl)-phenyl]-ethyl}-acetamide] | 6.53
COc1c(OCCC2CC2)ccc2c1CCN(Cc1ccc([C@H](C)NC(C)=O)cc1)C2 [Example 1.077] | 7.40
CCOc1ccc2c(c1Cl)CCN(Cc1ccc(C(C)NC(C)=O)cc1)C2 (centres unmarked) [Example 1.032] | 6.58
CCC(=O)N[C@@H](C)c1ccc(CN2Cc3ccc(OCC4CC4)cc3C(F)C2)cc1 (some centres unmarked) [Example 3.024] | 7.66
COc1cccc2c1CCN(Cc1ccc([C@H](C)NC(=O)C3CC3)cc1)C2 [Example 2.002] | 6.63
C[C@H](NC(=O)C(F)(F)F)c1ccc(CN2CCc3cc(OCC4CC4(F)F)ccc3C2)cc1 (some centres unmarked) [Example 4.002] | 7.28
COc1c(OCCCF)ccc2c1CCN(Cc1ccc([C@H](C)NC(C)=O)cc1)C2 [Example 1.065] | 6.68
COc1ccc2c(c1Cl)CCN(Cc1ccc(C(C)NC(C)=O)cc1)C2 (centres unmarked) [Example 1.024] | 6.38
C[C@H](NC(=O)CC#N)c1ccc(CN2Cc3ccc(OCC4CC4)cc3C(O)C2)cc1 (some centres unmarked) [Example 3.051] | 6.22
COc1c(OCC2CC2)ccc2c1CCN(Cc1ccc([C@H](C)NC(=O)C3CC3)cc1)C2 [Example 1.048] | 6.86
COc1c(OCC2CCC2)ccc2c1CCN(Cc1ccc([C@H](C)NC(=O)C3CC3)cc1)C2 [Example 1.055] | 7.39
